The values below come from patent US20140326192A1, “ANTIMICROBIAL ANIMAL PRODUCT” (COVENTRY UNIVERSITY, priority 2011, published 2014).

The data set can be described thus: Stability of the antimicrobial agent to melting during processing (activity retained). It is filed as physicochemical. As to the method: Bundles of the dosed and non-dosed fibres were melted at 170° C. and compressed, to manufacture a number of continuous, smooth, 2 mm thick plastic sheets. The sheets were cut to create 50×50 mm area test pieces, as required by the standard test for Anti Microbial Activity ISO 22196:2007. This test is an appropriate method for assessing the surface antimicrobial activity of plastic materials when micro-organisms are placed onto the test piece.
3-(trihydroxysilyl)propyldimethyl octodecyl ammonium chloride was combined with polypropylene stock at a dosing rate of around 1% by total weight and the mixture melted, before extruding it into fibres. Control fibres were produced by a method identical other than omission of the 3-(trihydroxysilyl)propyldimethyl octodecyl ammonium chloride. The fibres were 0.45 mm with an X shape cross section and 100 mm long.

Turning to `CCCCCCCCCCCCCCCCCC[N+](C)(C)CCC[Si](O)(O)O.[Cl-]` [antimicrobial agent, 3-(trihydroxysilyl)propyldimethyl octodecyl ammonium chloride], the “stability to re-melting of the fibres when making the test pieces” value (fibres melted at 170° C. and compressed) is on record as “sufficiently stable”. Moreover, the “stability after melting when making the fibres” value (melting to 200° C.) is “sufficiently stable”.
